Reference: publication PMC7717492 (Science translational medicine, 2019)
“Also recorded” adds a separate entry of the source.

Legend:
TOV-21G HDAC6-KO cells = assay: Drug sensitivity of HDAC6-KO ovarian cancer cells; format: cell-based, human; conditions: ARID1A-mutant ovarian cancer cell line
HDAC6-KO HAP1 cells = conditions: cited from earlier work
MPS1 mutant cells = format: cell-based; conditions: CRISPR-mediated HDR knock-in
CASP3-KO lines = assay: Dose-response of Rosa26 and CASP3-KO cells with putative caspase-3 activators; format: cell-based, human; conditions: four different cell lines incl. A375 and HCT116
MCF7 cells = conditions: caspase 3-deficient breast cancer cell line; cited from earlier work
[1] = test system: MAPK14/p38α knockout clones; assay: Sensitivity of MAPK14/p38α knockout clones to chemotherapy agents; format: cell-based, human; conditions: multiple cell lines
[2] = test system: OTS964-resistant HCT116 clones; assay: Paclitaxel sensitivity of OTS964-resistant clones; conditions: HCT116 clones resistant to OTS964
HDAC6 knockout clones = assay: Sensitivity of HDAC6 knockout clones to chemotherapy agents; format: cell-based, human; conditions: HDAC6 knockout versus control clones
[3] = test system: MELK-knockout (KO) cancer cells; conditions: cited from earlier work
p53 knockout cells = assay: Nutlin-3a sensitivity after p53 knockout; format: cell-based
[4] = test system: A375 cells expressing H2B-mCherry; assay: Mitotic progression after release from double-thymidine block into OTS964; format: cell-based, human
[5] = test system: CDK11B G579S / G579A cancer cells; assay: Viability of CDK11B xDFG mutant cancer cells in OTS964; format: cell-based, human
multiple cancer types = assay: OTS964 potency in cancer cell lines
CDK11B = CDK11B (Homo sapiens, UniProt P21127); assay: Binding of OTS964 to different CDKs
CDK11B, sequence (P21127 whole entry): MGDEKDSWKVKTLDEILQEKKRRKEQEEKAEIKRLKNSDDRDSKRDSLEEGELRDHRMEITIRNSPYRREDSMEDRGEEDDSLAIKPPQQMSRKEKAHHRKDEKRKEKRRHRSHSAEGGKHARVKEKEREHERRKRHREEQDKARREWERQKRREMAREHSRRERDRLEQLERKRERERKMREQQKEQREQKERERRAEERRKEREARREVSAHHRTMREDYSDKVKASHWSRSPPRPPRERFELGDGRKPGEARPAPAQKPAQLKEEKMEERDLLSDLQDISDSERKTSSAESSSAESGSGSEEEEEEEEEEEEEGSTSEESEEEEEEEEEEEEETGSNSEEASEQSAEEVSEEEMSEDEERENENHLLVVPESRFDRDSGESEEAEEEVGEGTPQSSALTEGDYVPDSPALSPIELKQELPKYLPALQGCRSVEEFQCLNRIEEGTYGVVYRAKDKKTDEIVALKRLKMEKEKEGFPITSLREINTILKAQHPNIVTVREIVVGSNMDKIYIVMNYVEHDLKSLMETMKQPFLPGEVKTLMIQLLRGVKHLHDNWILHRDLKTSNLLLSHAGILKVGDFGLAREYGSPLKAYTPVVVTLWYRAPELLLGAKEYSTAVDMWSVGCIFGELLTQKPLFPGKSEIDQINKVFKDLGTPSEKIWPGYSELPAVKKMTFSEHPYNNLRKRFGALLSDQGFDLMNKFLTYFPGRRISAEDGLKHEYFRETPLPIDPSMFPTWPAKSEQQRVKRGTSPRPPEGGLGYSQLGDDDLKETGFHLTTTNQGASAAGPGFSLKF

FKBP12 KO clones = assay: Rapamycin sensitivity of FKBP12 knockout clones; format: cell-based
[6] = test system: Rosa26 and PAK4-KO melanoma cells; assay: 7-point dose-response of Rosa26 and PAK4-KO cells with PF-3758309; format: cell-based; conditions: Homo sapiens, A-375

For `O=C(CCCCCCNC(=O)c1cnc(N(c2ccccc2)c2ccccc2)nc1)NO` [ricolinostat], the “sensitivity of TOV-21G HDAC6-KO cells” value (TOV-21G HDAC6-KO cells) is given as “remained sensitive” and the “killing of HDAC6-KO HAP1 cells” value (HDAC6-KO HAP1 cells) is given as “continued to kill; also recorded: kills”.
With `COc1cc(OC2CCN(C)CC2)ccc1Nc1ncc2c(n1)n(C1CCCC1)c(=O)n2C` [AZ3146] the “effect of MPS1 kinase domain missense mutation on drug sensitivity” value (MPS1 mutant cells) was “capable of granting resistance”.
In the case of `C=CCc1cccc(/C=N/NC(=O)CN2CCN(Cc3ccccc3)CC2)c1O` [PAC-1], the “sensitivity of CASP3-KO lines compared to Rosa26 controls” value (CASP3-KO lines) is given as “identical sensitivity” and the “IC50 value in MCF7 cells compared to caspase 3-expressing cell lines” value (MCF7 cells) is given as “higher”.
With `CC(C)C[C@H](NC(=O)[C@H](Cc1ccccc1)NC(=O)c1cnccn1)B(O)O` [bortezomib] the “sensitivity of MAPK14/p38α knockout clones versus Rosa26 control clones” value [1] was “as sensitive”.
With `CC(=O)O[C@H]1C(=O)[C@@]2(C)[C@H]([C@H](OC(=O)c3ccccc3)[C@]3(O)C[C@H](OC(=O)[C@H](O)[C@@H](NC(=O)c4ccccc4)c4ccccc4)C(C)=C1C3(C)C)[C@]1(OC(C)=O)CO[C@@H]1C[C@@H]2O` [paclitaxel] the “sensitivity of OTS964-resistant clones” value [2] was “remained sensitive” and the “effect of loss of HDAC6 on drug sensitivity” value (HDAC6 knockout clones) was “failed to sensitize”.
In the case of `CC(=O)c1cnc2ccc(-c3cc(Cl)c(O)c(Cl)c3)nc2c1N[C@H]1CC[C@H](CN(C)C)CC1` [OTS167], the “killing of MELK-KO cancer cells” value [3] is listed as “no decrease in potency”.
For `COc1ccc(C2=N[C@@H](c3ccc(Cl)cc3)[C@@H](c3ccc(Cl)cc3)N2C(=O)N2CCNC(=O)C2)c(OC(C)C)c1` [nutlin-3a], the “effect of p53 knockout on drug sensitivity” value (p53 knockout cells) was “conferred resistance”.
In the case of `Cc1cc(O)c(-c2ccc(C(C)CN(C)C)cc2)c2c1[nH]c(=O)c1sccc12` (stereo not drawn) [OTS964], the “effect of G579S substitution on mitotic entry and progression in drug” value ([4]; A375 cells with CDK11B G579S, lethal concentration of OTS964) is reported as “rescued normal mitotic entry and progression”, the “effect on DNA replication” value ([4]; arrested cells: 4C DNA content, no 53BP1-foci) is reported as “did not perturb DNA replication” and the “effect on cell cycle” value ([4]; lethal concentration of OTS964, release from double-thymidine block) is reported as “arrested in G2”. The “effect on mitotic progression” value ([4]; low concentration of OTS964, release from double-thymidine block) was “delayed nuclear envelope breakdown and progressed slowly through mitosis”, the “effect of CDK11B xDFG Gly→Ser (G579S) mutation on viability in drug” value ([5]; A375, A2780, DLD1 and MDA-MB-231 cells, lethal concentration of OTS964) was “sufficient to restore viability” and the “effect of alanine substitution at CDK11B residue 579 on drug efficacy” value ([5]; CDK11B residue 579 alanine substitution) was “sufficient to decrease the efficacy”. The potency (multiple cancer types) was “nanomolar potency” and the Kd (CDK11B) was 40 nM.
In the case of `Nc1ccn([C@@H]2O[C@H](CO)[C@@H](O)C2(F)F)c(=O)n1` [gemcitabine], the “sensitivity of MAPK14/p38α knockout clones versus Rosa26 control clones” value [1] is reported as “as sensitive”.
For `CO[C@H]1C[C@@H]2CC[C@@H](C)[C@@](O)(O2)C(=O)C(=O)N2CCCC[C@H]2C(=O)O[C@H]([C@H](C)C[C@@H]2CC[C@@H](O)[C@H](OC)C2)CC(=O)[C@H](C)/C=C(\C)[C@@H](O)[C@@H](OC)C(=O)[C@H](C)C[C@H](C)/C=C/C=C/C=C/1C` [rapamycin], the “effect of FKBP12 knockout on drug sensitivity” value (FKBP12 KO clones) was “increased resistance”.
In the case of `Cn1nnc2c(C(N)=O)ncn2c1=O` [temozolomide], the “sensitivity of MAPK14/p38α knockout clones versus Rosa26 control clones” value [1] is reported as “as sensitive”.
In the case of `N.N.O=C([O-])C1(C(=O)[O-])CCC1.[Pt+2]` [carboplatin], the “sensitivity of MAPK14/p38α knockout clones versus Rosa26 control clones” value [1] is reported as “as sensitive”.
`Cc1nc(Nc2[nH]nc3c2CN(C(=O)N[C@H](CN(C)C)c2ccccc2)C3(C)C)c2sccc2n1` [PF-3758309] showed a GI50 [6] of roughly 9 nM.
In the case of `O=C(CCCCCCNC(=O)c1cnc(N(c2ccccc2)c2ccccc2Cl)nc1)NO` [citarinostat], the “sensitivity of TOV-21G HDAC6-KO cells” value (TOV-21G HDAC6-KO cells) is reported as “remained sensitive”.
